Source: paper PMC11851464, “Development of a Spectrophotometric Assay for the Cysteine Desulfurase from Staphylococcus aureus” (Antibiotics, 2025)

Columns and labels:
[1] = biological target: T1, cysteine desulfurase SufS (SaSufS) (Staphylococcus aureus, UniProt A0A0H2XHJ5); assay: spectrophotometric […] nm assay after […] h incubation; UV-Vis of PLP adduct; assay type: biochemical
[2] = biological target: T1, cysteine desulfurase SufS (SaSufS); assay: spectrophotometric […] nm assay after […] h incubation; Ala-NDA assay (IC50 […]); UV-Vis of PLP adduct; assay type: biochemical

Row | IC50 [1] | IC50 [2] | Compound
1 | 2.17 ± 0.92 mM |  | N[C@@H]1CON=C1O [DCS, D-cycloserine]
2 |  | 62 ± 23 µM | N[C@H]1CONC1=O [LCS, L-cycloserine]
